Assays:
[1] = tested on: Cisplatin-sensitive (OV2008) human ovarian epithelial cells; assay: Apoptosis (nuclear staining, DNA ladders, TUNEL) in cisplatin-sensitive ovarian cancer cells; type: cell-based; settings: for incidence of apoptosis: cisplatin 0-30 μM or taxol 0-1.0 μM, up to 48 hours
Description: (§1) Cisplatin-sensitive (OV2008) and -resistant (C13) human ovarian epithelial cells were cultured in a chemically-defined medium at 37° C. for up to 48 hours in the presence or absence of TGFβ (20 ng/ml), taxol (0–1.0 μM) or cisplatin (0–30 μM). At the end of the culture period, cells were either fixed for immunocytochemistry and TUNEL analyses, or snap frozen for subsequent extraction for IAP mRNA and proteins analyses.
(§2) Human ovarian epithelial cancer cells were fixed (4% formalin in PBS; 10 min. RT), washed in PBS, resuspended in Hoescht 33248 stain (0.1 μg/ml PBS, 10 min) washed again and spotted onto slides for microscopy. Nuclear staining was observed and photographed using a Zeiss fluorescent microscope equipped with an FITC filter. Apoptotic cells were identified by typical nuclear morphology, and counted using randomly selected fields and numbered photographic slides to avoid bias during counting.
(§3) Cellular DNA was extracted using the Qiagen Blood Amt kit. DNA was quantified by ethidium bromide fluorescence. DNA (0.5 μg) was then end labelled by incubating (20 min, RT) with Klenow enzyme (2 U in 10 mM Tris+5 mM MgCl2) and 0.1 μCi [α32P]dCTP. Unincorporated nucleotides were removed with the Qiagen nucleotide removal kit and samples were resolved by Tris-acetate-EDTA agarose (1.8%) gel electrophoresis. The gel was then dried (2 hr, no heat) and exposed to a Bio-Rad phosphoimager screen to densitometrically quantify low molecular weight DNA (<15 kBp) and subsequently to x-ray film at −80° C.
To identify cell death using the in situ cell death detection kit (Boehringer-Mannheim), slides prepared for histology were treated (20 min. 37° C.) with terminal tranferase in the presence of FITC-conjugated dUTP.

[2] = tested on: XIAP protein in C13 cells; assay: Western blot for XIAP protein in C13 cells; type: cell-based, human
Description: as §1
(§4) Protein extracts were prepared from human surface epithelial cancer cells sonicated (8 s/cycle, 3 cycles) on ice in sucrose buffer (0.25 M sucrose, 0.025 M NaCl, 1 mM EGTA and 15 mM Tris-HCl pH 6.8, supplemented with 1 mM PMSF, 2 μg/ml of leupeptin and 5 μg/ml of aprotinin. The sonicates were centrifuged at 13,000×g for 10 min, the supernatants were collected and stored at −20° C. until electrophoretic analyses were performed. Protein concentration was determined by Bio-Rad Protein Assay. Proteins (10–30 μg) were resolved by one-dimensional SDS-PAGE, and electrophoretically transferred to nitrocellulose membrane. Membranes were blocked with 5% non-fat milk, and subsequently incubated with rabbit polyclonal antibody for IAP anti-human Hiap-2ΔE(960529; 1:1000 dilution), anti-human NAIP E1.0 (951015; 1:1000 dilution) or anti-human Xiap (1:1000 dilution) diluted in TBST (10 mM Tris-buffered saline, 0.1% Tween-20, pH 7.5) containing 5% milk. […]

[3] = tested on: XIAP protein in OV2008 cells; assay: Western blot for XIAP protein in OV2008 cells; type: cell-based, human
Description: as §1, §4

[4] = tested on: HIAP-2 protein in OV2008 cells; assay: Western blot for HIAP-2 protein in OV2008 cells; type: cell-based, human
Description: as §1, §4

[5] = tested on: HIAP-2 mRNA in OV2008 cells; assay: Northern blot for HIAP-2 mRNA in OV2008 cells; type: cell-based, human
Description: as §1
(§5) Total RNA from ovarian surface epithelial cancer cells by using RNeasy Kit (Qiagen). The RNA samples (10–15 μg) were quantified spectrophotometrically and size-fractioned by electrophoresis on formaldehyde-agarose gels (1.1%) containing 1 μg/ml ethidium bromide to confirm even loading of RNA samples and adequate separation of 28S and 18S ribosomal bands. The RNAs bands were blotted onto a nylon membrane and cross-linked by UV light. Membranes were prehybridized in 50% formamide, saline sodium citrate (SSC; 750 mM NaCl, 75 mM Na citrate), 1×Denhardt's solution, 1% SDS, 4 mM EDTA and 100 μg/ml sheared salmon sperm DNA for 4 h at 42° C. Hybridization was performed overnight at 42° C. with 20 million cpm of ^32P-labelled IAP cDNA probes (rat Naip, rat Xiap or human Hiap-2) added to the prehybridization buffer. […] Data were normalized by the respective 28S and expressed as a percentage of the control (defined as 100%).

HIAP-2 mRNA in C13 cells = assay: Northern blot for HIAP-2 mRNA in C13 cells; type: cell-based, human
Description: as §1, §5

[6] = tested on: HIAP-2 protein in C13 cells; assay: Western blot for HIAP-2 protein in C13 cells; type: cell-based, human
Description: as §1, §4

HeLa cells = assay: Apoptosis and 26 kDa xiap cleavage product (Western blot) in HeLa cells; type: cell-based, human; settings: 18 hours; for 26 kDa xiap cleavage product: HeLa cells, cycloheximide 20 μg/ml, TNFα 1,000 U/ml, anti-Fas antibody 1 μg/ml; for apoptosis of HeLa cells: cycloheximide 20 μg/ml or TNFα 1,000 U/ml alone
Description: A 26 kDa xiap-reactive band was also observed under the following experimental conditions. Jurkat cells (a transformed human T cell line) were induced to undergo apoptosis by exposure to an anti-Fas antibody (1 μg/ml). Identical cultures of Jurkat cells were exposed either to: (1) anti-Fas antibody and cycloheximide (20 μg/ml), (2) tumor necrosis factor alpha (TNF-α, at 1,000 U/ml), or (3) TNF-α and cycloheximide (20 μg/ml). All cells were harvested 6 hours after treatment began. In addition, as a negative control, anti-Fas antibody was added to an extract after the cells were harvested. The cells were harvested in SDS sample buffer, electrophoresed on a 12.5% SDS polyacrylamide gel, and electroblotted onto PVDF membranes using standard methods. The membranes were immunostained with a rabbit polyclonal anti-xiap antibody at 1:1000 for 1 hour at room temperature. Following four 15 minute washes, a goat anti-rabbit antibody conjugated to horse-radish peroxidase was applied at room temperature for 1 hour. Unbound secondary antibody was washed away, and chemiluminescent detection of xiap protein was performed. […] In addition, a novel, approximately 26 kDa xiap-reactive band was also observed in apoptotic cell extracts, but not in the control, untreated cell extracts (FIG. 13).
Cleavage of xiap occurs in a variety of cell types, including other cancer cell lines such as HeLa. […] HeLa cells were treated with either: (1) cyclohexamide (20 μg/ml), (2) anti-Fas antibody (1 μg/ml), (3) anti-Fas antibody (1 μg/ml) and cyclohexamide (20 μg/ml), (4) TNFα (1,000 U/ml), or (5) TNFα (1,000 U/ml) and cyclohexamide (20 μg/ml). All cells were harvested 18 hours after treatment began. As above, anti-Fas antibody was added to an extract after the cells were harvested. HeLa cells were harvested, and the Western blot was probed under the same conditions as used to visualize xiap-reactive bands from Jurkat cell samples. A 26 kDa xiap band was again seen in the apoptotic cell preparations (FIG. 14). Furthermore, the degree of xiap cleavage correlated positively with cellular exposure to apoptotic triggers.
The time course over which the 26 kDa cleavage product accumulates was examined by treating HeLa and Jurkat cells with anti-Fas antibody (1 μg/ml) and harvesting them either immediately, or 1, 2, 3, 5, 10, or 22 hours after treatment. Protein extracts were prepared and Western blot analysis was performed as described above.

[7] = tested on: Cisplatin-resistant (C13) human ovarian epithelial cells; assay: Apoptosis (nuclear staining, DNA ladders, TUNEL) in cisplatin-resistant ovarian cancer cells; type: cell-based; settings: TGFβ 20 ng/ml
Description: as §1, §2
as §3, with “Unincorporated nucleotides were removed with the Qiagen nucleotide removal kit and samples were resolved by Tris-acetate-EDTA agarose (1.8%) gel electrophoresis.” left out, “C. […]” for “C.”

Molecule: N.N.[Cl][Pt][Cl] [Cisplatin, cisplatin]
- incidence of apoptosis [1]: concentration-dependent increase

Molecule: CC(=O)O[C@H]1C(=O)[C@@]2(C)[C@H]([C@H](OC(=O)c3ccccc3)[C@]3(O)C[C@H](OC(=O)[C@H](O)[C@@H](NC(=O)c4ccccc4)c4ccccc4)C(C)=C1C3(C)C)[C@]1(OC(C)=O)CO[C@@H]1C[C@@H]2O [Taxol]
- XIAP protein level ([2]; C13 cells, Taxol 0.04-1.0 μM, concentration-dependent, less pronounced than in sensitive cells): decreased
- incidence of apoptosis [1]: induced apoptosis
- XIAP protein level ([3]; OV2008 cells, Taxol 0.04-1.0 μM, concentration-dependent, more pronounced than in resistant cells): decreased
- content of approx. 45 kDa immunoreactive fragment of HIAP-2 ([4]; Taxol): decreased
- HIAP-2 protein level ([4]; Taxol 0.04-1.0 μM, concentration-dependent, more pronounced than in resistant cells): decreased
- suppression of HIAP-2 mRNA abundance ([5]; cisplatin-sensitive cells, Taxol 0.2 μM): approx. 80%
- suppression of HIAP-2 mRNA abundance (HIAP-2 mRNA in C13 cells; cisplatin-resistant cells, Taxol 0.2 μM): ineffective
- content of approx. 45 kDa immunoreactive fragment of HIAP-2 ([6]; Taxol): increased
- HIAP-2 protein level ([6]; Taxol 0.04-1.0 μM, concentration-dependent, less pronounced than in sensitive cells): decreased

Molecule: C[C@@H]1C[C@@H]([C@H](O)CC2CC(=O)NC(=O)C2)C(=O)[C@@H](C)C1 [cycloheximide]
- 26 kDa xiap cleavage product (HeLa cells): little cleavage product
- apoptosis of HeLa cells (HeLa cells): only minor apoptosis

Molecule: TGFβ: TGFβ (20 ng/ml) added to ovarian cancer cell cultures
- influence on Xiap protein content ([2]; cisplatin-resistant cells, TGFβ 20 ng/ml): only marginal
- induction of apoptosis ([1]; TGFβ 20 ng/ml): induced apoptosis
- influence on Xiap protein content ([3]; cisplatin-sensitive cells, TGFβ 20 ng/ml): markedly suppressed
- HIAP-2 mRNA ([5]; OV2008 cells, TGFβ 20 ng/ml): decreased
- HIAP-2 mRNA (HIAP-2 mRNA in C13 cells; C13 cells, TGFβ 20 ng/ml): not C13
- induction of apoptosis [7]: not in C13

Molecule: TNFα
- 26 kDa xiap cleavage product (HeLa cells): little cleavage product
- apoptosis of HeLa cells (HeLa cells): only minor apoptosis

From patent US7087584B2, “Detection and modulation of IAPs and NAIP for the diagnosis and treatment of proliferative disease” (Aegera Therapeutics Inc., priority 1997, dated 2006)
